From ChEMBL document CHEMBL1806412, “Discovery of novel fatty acid synthase (FAS) inhibitors based on the structure of ketoaceyl synthase (KS) domain” (Bioorg Med Chem Lett, 2011)
The source made the active and inactive calls. The rule behind the calls is not given here.

Legend:
SW480 = assay: Growth inhibition of human SW480 cells overexpressing FAS gene after 72 hrs by MTT assay; type: functional, cell-based; conditions: SW480, 72 h
NCI-H1975 = assay: Growth inhibition of human NCI-H1975 cells at 0.041 to 10 ug/ml after 72 hrs by MTT assay; type: functional, cell-based
MDA-MB-468 = assay: Growth inhibition of human MDA-MB-468 cells overexpressing FAS gene after 72 hrs by MTT assay; type: functional, cell-based; conditions: MDA-MB-468, 72 h
Fatty acid synthase = Fatty acid synthase (Gallus gallus, UniProt P12276); assay: Inhibition of chicken FAS by spectrophotometric analysis
Fatty acid synthase, sequence (P12276 whole entry): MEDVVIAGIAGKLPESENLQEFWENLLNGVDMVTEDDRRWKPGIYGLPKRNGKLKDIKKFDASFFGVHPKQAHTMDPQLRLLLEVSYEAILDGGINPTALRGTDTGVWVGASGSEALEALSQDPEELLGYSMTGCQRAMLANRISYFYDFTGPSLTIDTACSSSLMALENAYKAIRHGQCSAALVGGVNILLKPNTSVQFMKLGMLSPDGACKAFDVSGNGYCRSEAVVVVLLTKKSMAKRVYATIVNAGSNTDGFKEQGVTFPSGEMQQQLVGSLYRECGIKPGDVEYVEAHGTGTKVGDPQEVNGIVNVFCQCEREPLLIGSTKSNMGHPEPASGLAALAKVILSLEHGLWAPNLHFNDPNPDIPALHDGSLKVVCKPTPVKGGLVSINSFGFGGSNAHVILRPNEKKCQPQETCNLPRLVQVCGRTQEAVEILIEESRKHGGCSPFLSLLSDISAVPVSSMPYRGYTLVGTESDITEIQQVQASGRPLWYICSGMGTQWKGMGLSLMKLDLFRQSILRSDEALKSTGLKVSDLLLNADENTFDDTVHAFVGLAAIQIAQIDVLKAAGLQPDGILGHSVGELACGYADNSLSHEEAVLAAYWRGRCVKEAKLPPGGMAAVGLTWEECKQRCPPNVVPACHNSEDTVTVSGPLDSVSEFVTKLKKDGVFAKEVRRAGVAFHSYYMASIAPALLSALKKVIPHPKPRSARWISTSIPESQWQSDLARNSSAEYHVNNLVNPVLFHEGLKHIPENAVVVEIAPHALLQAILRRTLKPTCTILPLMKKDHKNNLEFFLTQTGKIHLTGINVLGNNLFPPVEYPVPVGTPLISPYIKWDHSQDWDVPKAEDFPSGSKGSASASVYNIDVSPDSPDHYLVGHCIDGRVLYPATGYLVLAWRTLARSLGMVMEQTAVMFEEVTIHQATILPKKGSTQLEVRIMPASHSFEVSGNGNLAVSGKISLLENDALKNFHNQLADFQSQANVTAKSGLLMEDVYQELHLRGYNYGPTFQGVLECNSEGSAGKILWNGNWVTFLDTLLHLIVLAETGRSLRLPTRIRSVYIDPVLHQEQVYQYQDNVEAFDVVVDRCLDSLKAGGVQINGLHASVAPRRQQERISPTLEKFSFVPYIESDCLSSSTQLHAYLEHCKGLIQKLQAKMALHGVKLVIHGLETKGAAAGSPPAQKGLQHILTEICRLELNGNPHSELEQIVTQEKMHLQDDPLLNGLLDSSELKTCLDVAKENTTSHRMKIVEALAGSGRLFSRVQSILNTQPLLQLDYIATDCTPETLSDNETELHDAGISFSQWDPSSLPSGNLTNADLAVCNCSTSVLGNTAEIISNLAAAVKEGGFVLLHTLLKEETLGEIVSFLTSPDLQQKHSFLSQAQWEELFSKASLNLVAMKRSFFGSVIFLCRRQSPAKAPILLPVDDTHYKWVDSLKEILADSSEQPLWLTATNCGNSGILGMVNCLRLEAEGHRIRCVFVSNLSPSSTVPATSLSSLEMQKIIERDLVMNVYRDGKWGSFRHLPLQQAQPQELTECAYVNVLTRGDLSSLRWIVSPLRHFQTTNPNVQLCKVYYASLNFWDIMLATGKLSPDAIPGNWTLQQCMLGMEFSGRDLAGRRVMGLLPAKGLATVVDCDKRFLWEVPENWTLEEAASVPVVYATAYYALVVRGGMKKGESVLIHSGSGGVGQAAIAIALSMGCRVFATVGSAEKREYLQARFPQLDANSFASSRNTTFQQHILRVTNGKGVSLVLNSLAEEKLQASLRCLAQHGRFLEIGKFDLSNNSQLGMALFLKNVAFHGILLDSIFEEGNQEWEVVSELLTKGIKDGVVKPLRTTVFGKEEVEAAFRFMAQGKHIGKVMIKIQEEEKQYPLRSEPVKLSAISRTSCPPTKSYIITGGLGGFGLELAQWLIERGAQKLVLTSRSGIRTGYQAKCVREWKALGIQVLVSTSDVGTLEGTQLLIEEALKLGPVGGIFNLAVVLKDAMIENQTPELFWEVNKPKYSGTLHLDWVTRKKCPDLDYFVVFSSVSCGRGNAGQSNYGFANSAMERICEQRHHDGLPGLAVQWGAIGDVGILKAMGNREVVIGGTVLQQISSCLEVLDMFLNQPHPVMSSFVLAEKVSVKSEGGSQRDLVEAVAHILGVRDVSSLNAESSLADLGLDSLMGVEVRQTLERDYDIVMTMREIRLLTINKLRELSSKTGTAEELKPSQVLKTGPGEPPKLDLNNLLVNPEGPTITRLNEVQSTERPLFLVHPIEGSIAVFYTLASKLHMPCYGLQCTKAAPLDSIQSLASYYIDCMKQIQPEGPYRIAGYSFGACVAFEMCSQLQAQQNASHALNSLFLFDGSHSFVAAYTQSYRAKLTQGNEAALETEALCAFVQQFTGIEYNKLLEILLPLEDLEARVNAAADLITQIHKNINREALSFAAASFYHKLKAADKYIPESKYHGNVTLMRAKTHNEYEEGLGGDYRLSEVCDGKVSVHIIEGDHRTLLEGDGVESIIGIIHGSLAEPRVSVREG

Row | SMILES | IC50 (SW480) | inhibition (NCI-H1975) | IC50 (MDA-MB-468) | IC50 (Fatty acid synthase)
1 | CC1=C(C(=O)Nc2ccccc2)[C@@H](c2ccc(OCc3ccccc3)cc2)n2ncnc2N1 | 19.9 µM | inactive | – | –
2 | COc1cc(OC)c([C@H]2NC(=S)NC(C)=C2C(=O)Nc2ccccc2Cl)cc1OC | 7.5 µM | inactive | – | –
3 | CC1=C(C(=O)Nc2ccccn2)C(c2ccc(Br)cc2)NC(S)=N1 (configuration not stated) | – | inactive | 8.4 µM | –
4 | O=[N+]([O-])c1cccc(-c2csc(N/N=C\c3ccccn3)n2)c1 | 1.5 µM | inactive | 8.3 µM | 12.7 µM
5 | CCn1c(SCC(=O)Nc2cc(Cl)ccc2Cl)nnc1C(C)(C)NC(=O)c1cccc(C)c1 | 14.7 µM | inactive | – | –
6 | CC1=NC2N=NNN2[C@@H](c2ccc(OCc3ccccc3)cc2)C1C(=O)Nc1ccccc1 (some centres not stated) | 11.1 µM | inactive | 19.3 µM | –
7 | CC1=C(C(=O)Nc2ccc(Cl)cc2)C(c2cc(Br)ccc2O)NC(=S)N1 (configuration not stated) | 14.2 µM | inactive | – | –
